The text below walks through data of patent US20040253308A1, “Surface-treated modafinil particles” (Barr Laboratories, Inc., priority 2003, published 2004).

A short description of data set [1]: Particle size determination (Hiac/Royco system). It counts as physicochemical. Particulars: production lot used for FIG. 1 tablets. The method, then:
Particle size can be determined by various methods known to those in the art, such as, but not limited to, laser particle size detectors. Particle size, as defined herein, is determined using a Hiac/Royco system, which includes the Model 9064 particle counter and the Model 3000A liquid syringe sampler (11801 Tech Road, Silver Spring, Md. 20904, U.S.A.).
Particle size was determined using a Hiac/Royco system, which includes the Model 9064 particle counter and the Model 3000A liquid syringe sampler (11801 Tech Road, Silver Spring, Md. 20904, U.S.A.). Samples were prepared in water saturated with modafinil. For each sample preparation, five consecutive readings were measured. The test was done in triplicate and the average was reported.

The next data set deals with mice. The conditions noted are these: single administration (Duteil et al.); cited from earlier work.
For a further data set, the system named is monkeys. The conditions noted are these: single administration (Duteil et al.); cited from earlier work.

Take `NC(=O)C[S+]([O-])C(c1ccccc1)c1ccccc1` (stereo not shown) [modafinil, 2-(benzhydrylsulfinyl)acetamide]: in data set [1] (pretreated modafinil particles), the median particle size worked out at 148 μm. In data set [1], the “diameter exceeded by 5% of the total of pretreated modafinil particles” value is recorded as 277 μm. For the same compound, the locomotor activity result in the data set on mice is “increased locomotor activity”. The nocturnal activity result with monkeys is given as “increased nocturnal activity”.
